For data set [1], the target named is T1, human placental DPP-IV (Homo sapiens, UniProt P27487).
T1 construct: a solution of human placental DPP-IV (Calbiochem, La Jolla, Calif., cat. # 317624); purchased Calbiochem, La Jolla, Calif; 317624; host or cells: human placenta (tissue-derived)
The experiment in a line: Assay for resistance to dipeptidyl peptidase IV. The data set is classed as in vitro ADME. Particulars: for cleavage products detected: after 24 hours incubation with DPP-IV at 37° C., RP-HPLC. The protocol: Each peptide was tested in duplicate.
Sample components were detected at 214 nanometers (nm).

Data set [2] concerns adenylate cyclase. Particulars: liver plasma membranes; cited from earlier work.
In data set [3] the test system is rat liver and brain tissues. Particulars: cited from earlier work.
Data set [4] concerns adenylate cyclase. Particulars: rat hypothalamic and pituitary tissue; cited from earlier work.

We go through four compounds from patent US5789379A, “Glucagon-like peptide-2 analogs” (Allelix Biopharmaceutical Inc., priority 1996, dated 1998).

Square brackets hold non-standard residues; d marks the D form. Ends that are not written are not given here. Peptide text beside a SMILES is read from it.

T1 sequence (P27487 whole entry): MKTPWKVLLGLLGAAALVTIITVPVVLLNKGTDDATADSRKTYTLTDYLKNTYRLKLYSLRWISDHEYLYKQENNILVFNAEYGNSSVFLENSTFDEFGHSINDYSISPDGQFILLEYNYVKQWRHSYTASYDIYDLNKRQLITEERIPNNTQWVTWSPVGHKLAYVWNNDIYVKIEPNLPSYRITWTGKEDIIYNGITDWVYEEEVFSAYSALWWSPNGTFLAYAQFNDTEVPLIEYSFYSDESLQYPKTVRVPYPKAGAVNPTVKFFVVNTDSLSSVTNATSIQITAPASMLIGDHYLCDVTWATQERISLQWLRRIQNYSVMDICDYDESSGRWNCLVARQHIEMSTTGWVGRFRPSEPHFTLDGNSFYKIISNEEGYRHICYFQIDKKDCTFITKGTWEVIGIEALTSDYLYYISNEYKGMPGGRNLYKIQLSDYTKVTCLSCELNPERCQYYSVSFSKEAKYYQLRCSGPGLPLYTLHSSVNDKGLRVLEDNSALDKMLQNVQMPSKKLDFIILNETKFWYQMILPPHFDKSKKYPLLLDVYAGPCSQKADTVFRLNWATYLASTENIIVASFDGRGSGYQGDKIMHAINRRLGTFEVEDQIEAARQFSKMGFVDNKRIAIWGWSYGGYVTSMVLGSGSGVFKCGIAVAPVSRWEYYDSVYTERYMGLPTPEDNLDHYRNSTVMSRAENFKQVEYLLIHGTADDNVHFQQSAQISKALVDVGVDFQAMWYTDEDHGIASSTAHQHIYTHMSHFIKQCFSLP

As for `CC[C@H](C)[C@H](NC(=O)[C@H](Cc1ccccc1)NC(=O)[C@H](CC(=O)O)NC(=O)[C@H](CCCNC(=N)N)NC(=O)[C@@H](NC(=O)[C@H](C)NC(=O)[C@H](CC(C)C)NC(=O)[C@H](CC(N)=O)NC(=O)[C@H](CC(=O)O)NC(=O)[C@H](CC(C)C)NC(=O)[C@@H](NC(=O)[C@@H](NC(=O)[C@H](CC(N)=O)NC(=O)[C@H](CCSC)NC(=O)[C@H](CCC(=O)O)NC(=O)[C@H](CC(=O)O)NC(=O)[C@H](CO)NC(=O)[C@H](Cc1ccccc1)NC(=O)[C@H](CO)NC(=O)CNC(=O)[C@H](CC(=O)O)NC(=O)[C@@H](C)NC(=O)[C@@H](N)Cc1c[nH]cn1)[C@@H](C)O)[C@@H](C)CC)[C@@H](C)O)C(=O)N[C@@H](CC(N)=O)C(=O)N[C@@H](Cc1c[nH]c2ccccc12)C(=O)N[C@@H](CC(C)C)C(=O)N[C@H](C(=O)N[C@@H](CCC(N)=O)C(=O)N[C@H](C(=O)N[C@@H](CCCCN)C(=O)N[C@H](C(=O)N[C@H](C(=O)N[C@@H](CC(=O)O)C(=O)O)[C@@H](C)O)[C@@H](C)CC)[C@@H](C)O)[C@@H](C)CC` [compound 3, [D-Ala^2]rGLP-2] (H-H[dA]DGSFSDEMNTILDNLATRDFINWLIQTKITD-OH), the cleavage products detected result in data set [1] is recorded as “No cleavage products were detected”. Take “GLP-2: glucagon-like peptide GLP-2 as studied by Hoosein et al (literature); species not stated”: in data set [2], the “stimulation of adenylate cyclase production” value is listed as “nor stimulates”. The “competition with glucagon for binding” value in data set [3] is “neither competes”. In addition, the “concentration stimulating adenylate cyclase” value in data set [4] was 30 to 50 pM. “HADGSFSDEMNTILDNLATRDFINWLIQTKITD [compound 1, rGLP-2]”: the “peptide cleaved by DPP-IV” value in data set [1] (24 hour incubation at 37° C., 0.2 mg/ml peptide in PBS pH 7.4, RP-HPLC) turned out to be 22%.

With “HGDGSFSDEMNTILDNLATRDFINWLIQTKITD [compound 4, [Gly^2]rGLP-2]”, the cleavage products detected result in data set [1] is “No cleavage products were detected”.
